Reference: patent publication US6745512B1 (priority 1990, dated 2004)

Tested on: harmful organisms such as smut (Ustilago nuda), Fusaria and Septoria nodorum
Test: combined use of low energy electrons with subsequent fungicidal treatment of the seeds
Conditions: low energy electrons followed by fungicidal treatment of the seeds; 15 g, 30 g/100 kg seeds

Cc1oc(C)c(C(=O)Nc2ccccc2)c1C [Methfuroxam]
harmful organisms combated: 95 to 100%
